Data as given in patent US20030120046A1, “Radioisotope-labeled complexes of glucose derivatives and kits for the preparation thereof” (priority 2000, published 2003).
Where two headings read alike, the source gives them in different places.

Assays:
tumor = conditions: background art, in words; cited from earlier work
VX-2 tumor cells = conditions: for Normal region counts / Tumor counts: 1.5 mCi i.v.
Experimental: Further, ^99mTc-labeled radiopharmaceuticals were tested for their stability in a physiological saline and the human plasma with the lapse of time (see Example 4). […] The radiopharmaceuticals of the present invention were tested for biodistribution and the uptake level in rabbits transplanted with VX-2 tumor cells and then, compared with ^99mTc-MIBI currently used for imaging tumor in nuclear medicine (see Example 5). More specifically, ^99mTc-labeled glucose derivatives were injected to rabbits transplanted with tumor cells to obtain image using gamma camera. Then, the organs were removed to measure biodistribution and the uptake level of radiopharmaceuticals by calculating % ID (injected dose)/g, indicative of the uptake level of the injected radiopharmaceuticals per weight of tissues.
VX-2 tumor cells were ground in 2 ml of a physiological saline and then, transplanted via intramuscular injection to the right thigh muscle of three rabbits (New Zealand White species) weighing 2.5 to 3 kg using a syringe. Then, the rabbits were bred for 3 weeks to grow tumor to have a diameter of 2 to 3 cm. […] After injection, the rabbits were laid down under gamma camera and the gamma camera was controlled to cover the whole body and images were obtained for 15 minutes at 1 and 3 hours after injection, respectively.
The image of ^99mTc-MIBI was obtained at 10 minutes after injection. […] It is conventional that the standardized imaging time cannot be applied for radiopharmaceuticals since their physical, chemical and physiological properties all are different. Thus, the optimal imaging time may be set depending upon the employed radiopharmaceutical.
After obtaining image of the regions of interest, the uptake level of radioactivity was calculated from counts (unit of radioactivity) obtained by a particular program equipped with a gamma camera.

[1] = Stability test of radiopharmaceuticals in a physiological saline (purity by TLC); type: physicochemical; conditions: room temperature, mean of 3 experiments
Experimental: (§1) The stability of radiopharmaceuticals was expressed as the purity of radiopharmaceutical at a given time, and measured after 0, 2, 4 and 6 hrs in a physiological saline and the human plasma, respectively. […] After well stirring the ingredients in each vial, the stability was measured at given times at room temperature.
(§2) The stability was measured as follows. 5 μl of each radiopharmaceutical was deposited in the lower part of TLC and was developed using methyl ethyl ketone (or acetone) and 0.9% physiological saline, respectively. Upon completion of development, each TLC was equally divided into 2 parts and the radioactivity of each part was measured using gamma counter. The stability was calculated by measurement of the purity from the obtained radioactivity. […] The purity of radiopharmaceuticals is calculated as follows.
(§3) 100%−[(radioactivity in the upper part of TLC developed with acetone÷radioactivity in the whole TLC developed with acetone)+(radioactivity in the lower part of TLC developed with 0.9% physiological saline÷radioactivity in the whole TLC developed with 0.9% physiological saline)]×100%

[2] = Stability test of radiopharmaceuticals in the human plasma (purity by TLC); type: in vitro ADME; conditions: room temperature, mean of 3 experiments
Experimental: as §1, §2, §3

[3] = anterior image, 10 minutes after injection (footnote)
[4] = posterior image, 10 minutes after injection (footnote)

Molecule	uptake rate in the abdomen (tumor)	uptake rate in tumor (tumor)	wash-out rate in vivo (tumor)	Tumor/Normal ratio (VX-2 tumor cells; [3])	Normal region counts (VX-2 tumor cells; [3]) [counts]	Tumor counts (VX-2 tumor cells; [3]) [counts]	Tumor uptake/normal region uptake ratio (VX-2 tumor cells; anterior image, 10 minutes after injection (footnote), Mean ± S.D. from 3 experiments)	wash-out in vivo (VX-2 tumor cells; image cannot be practically obtained at 30 minutes or more after injection, in words)	Tumor/Normal ratio (VX-2 tumor cells; [4])	Normal region counts (VX-2 tumor cells; [4]) [counts]	Tumor counts (VX-2 tumor cells; [4]) [counts]	Purity of radiopharmaceuticals at given times ([1]; 0 h) [%]	Purity of radiopharmaceuticals at given times ([1]; 2 h) [%]	Purity of radiopharmaceuticals at given times ([1]; 4 h) [%]	Purity of radiopharmaceuticals at given times ([1]; 6 h) [%]	Purity of radiopharmaceuticals at given times ([2]; 0 h) [%]	Purity of radiopharmaceuticals at given times ([2]; 2 h) [%]	Purity of radiopharmaceuticals at given times ([2]; 4 h) [%]	Purity of radiopharmaceuticals at given times ([2]; 6 h) [%]
[99Tc].[C-]#[N+]CC(C)(C)OC.[C-]#[N+]CC(C)(C)OC.[C-]#[N+]CC(C)(C)OC.[C-]#[N+]CC(C)(C)OC.[C-]#[N+]CC(C)(C)OC.[C-]#[N+]CC(C)(C)OC [^99mTc-MIBI, ^99mTc-MIBI (methoxy isobutyl isonitrile)]	high	unsatisfactory	high	1.7	5829	9931	2.22 ± 0.87	rapidly washed out	2.0	6566	13047								
^99mTc-glucosamine												99.5	98.9	98.0	97.6	99.5	95.4	95.0	92.4
